# Tested on: MV4:11 human cancer cell lines
# Test: Anti-proliferative activity, CellTiter-Glo viability assay, 7 day protocol
# Assay type: cell-based
# Conditions: Homo sapiens, 168 h, MV4:11 cells, 7 day incubation, read-out: GI50 on cellular proliferation of MV4:11 human cancer cell lines
# Method: Viability assays are performed by dispensing […] into each well of an opaque 384-well plate and adding compounds at the indicated concentrations in a final volume of 32 μL and a final concentration of DMSO of 0.1% for all samples. After a set incubation period, 7 day protocol, the viability of cells in each well is assessed using the CellTiter-Glo assay (Promega), read on a GloMax 96 Microplane Luminometer (Promega). Serial dilutions of each cell type are included in all assays to generate standard curves and determine assay measurements are taken within the dynamic range of the instrument. GI50 values are calculated based on three biological replicates, each with three technical replicates. Data are expressed as mean plus/minus S.E.M.
row,GI50,SMILES
1,0.46 µM,Cc1cc(CNC(=O)c2cc(Cn3ccn(C)c3=N)cc(-c3c(C)cc(F)cc3C)c2)ccc1Cl [Example 59]

# Same assay, conditions: Homo sapiens, MV4-11, 168 h, MV4:11 cells, 7 day incubation, read-out: GI50 on cellular proliferation of MV4:11 human cancer cell lines
row,GI50,SMILES
1,0.18 µM,"Cc1cc([C@@H](NC(=O)c2cc(Cn3ccn(C)c3=N)cc(-c3ncc(F)cc3C(F)(F)F)c2)C2CC2)ccc1F [Example 72, (S)—N-(Cyclopropyl(4-fluoro-3-methylphenyl)methyl)-3-(5-fluoro-3-(trifluoromethyl)pyridin-2-yl)-5-((2-imino-3-methyl-2,3-dihydro-1H-imidazol-1-yl)methyl)benzamide]"
2,0.87 µM,"Cc1cc([C@H](NC(=O)c2cc(Cn3ccoc3=N)cc(-c3ccc(F)cc3C)c2)C(F)(F)F)ccc1F [Example 231, (S)-4′-Fluoro-5-((2-iminooxazol-3(2H)-yl)methyl)-2′-methyl-N-(2,2,2-trifluoro-1-(4-fluoro-3-methylphenyl)ethyl)-[1,1′-biphenyl]-3-carboxamide]"
3,1.8 µM,"Cc1cc([C@@H](NC(=O)c2cc(Cn3ccn(C)c3=N)cc(-c3ccc(F)cc3OC(F)F)c2)C2CC2)ccc1F [Example 73, (S)—N-(cyclopropyl(4-fluoro-3-methylphenyl)methyl)-2′-(difluoromethoxy)-4′-fluoro-5-((2-imino-3-methyl-2,3-dihydro-1-imidazol-1-yl)methyl)-[1,1′-biphenyl]-3-carboxamide]"
4,12 µM,"Cc1ccnc(C(NC(=O)c2cc(Cn3ccn(C)c3=N)cc(-c3ncc(F)cc3C(F)(F)F)c2)C2CC2)c1 (stereo not shown) [Example 75, N-(Cyclopropyl(4-methylpyridin-2-yl)methyl)-3-(5-fluoro-3-(trifluoromethyl)pyridin-2-yl)-5-((2-imino-3-methyl-2,3-dihydro-1H-imidazol-1-yl)methyl)benzamide]"
5,< 0.1 µM,"Cc1cc([C@@H](NC(=O)c2cc(CN3CCOC3=N)cc(-c3cccnc3C(F)(F)F)c2)C2CC2)ccc1F [Example 253, (S)-(Cyclopropyl(4-fluoro-3-methylphenyl)methyl)-3-((2-iminooxazolidin-3-yl)methyl)-5-(2-(trifluoromethyl)pyridin-3-yl)benzamide]"
6,12 µM,"Cc1cc([C@@H](NC(=O)c2cc(Cn3ccoc3=N)cc(-c3ncc(F)cc3C(F)(F)F)c2)C2CC2)ccc1F [Example 241, (S)—N-(Cyclopropyl(4-fluoro-3-methylphenyl)methyl)-3-(5-fluoro-3-(trifluoromethyl)pyridin-2-yl)-5-((2-iminooxazol-3(2H)-yl)methyl)benzamide]"
7,4.5 µM,"COc1cc(OC)cc(C(NC(=O)c2cc(Cn3ccn(C)c3=N)cc(-c3ncc(F)cc3C(F)(F)F)c2)C2CC2)c1 (stereo not shown) [Example 74, N-(Cyclopropyl(3,5-dimethoxyphenyl)methyl)-3-(5-fluoro-3-(trifluoromethyl)pyridin-2-yl)-5-((2-imino-3-methyl-2,3-dihydro-1H-imidazol-1-yl)methyl)benzamide]"
8,1.2 µM,"Cc1ccnc(C(NC(=O)c2cc(Cn3ccn(C)c3=N)cc(-c3cccnc3C(F)(F)F)c2)C2CC2)c1 (stereo not shown) [Example 77, N-(Cyclopropyl(4-methylpyridin-2-yl)methyl)-3-((2-imino-3-methyl-2,3-dihydro-1H-imidazol-1-yl)methyl)-5-(2-(trifluoromethyl)pyridin-3-yl)benzamide]"
9,0.1 µM,"Cc1cc([C@H](C)NC(=O)c2cc(Cn3ccn(C)c3=N)cc(-c3ccc(F)cc3C)c2)ccc1F [Example 30, (S)-4′-Fluoro-N-(1-(4-fluoro-3-methylphenyl)ethyl)-5-((2-imino-3-methyl-2,3-dihydro-1H-imidazol-1-yl)methyl)-2′-methyl-[1,1′-biphenyl]-3-carboxamide]"
10,< 0.1 µM,"Cc1cc([C@@H](NC(=O)c2cc(Cn3ccoc3=N)cc(-c3cccnc3C(F)(F)F)c2)C2CC2)ccc1F [Example 243, (S)—N-(Cyclopropyl(4-fluoro-3-methylphenyl)methyl)-3-((2-iminooxazol-3(2H)-yl)methyl)-5-(2-(trifluoromethyl)pyridin-3-yl)benzamide]"
11,1.4 µM,"Cc1cc(-c2cc(CN3CCCC3=N)cc(C(=O)NCc3ccc(Cl)c(Cl)c3)c2)c(C)cc1F [Example 332, N-(3,4-Dichlorobenzyl)-4′-fluoro-5-((2-iminopyrrolidin-1-yl)methyl)-2′,5′-dimethyl-[1,1′-biphenyl]-3-carboxamide]"
12,1.1 µM,"Cc1cc(F)ccc1-c1cc(Cn2ccoc2=N)cc(C(=O)N[C@@H](C)c2ccc(F)c(C(F)(F)F)c2)c1 [Example 233, (S)-4′-Fluoro-N-(1-(4-fluoro-3-(trifluoromethyl)phenyl)ethyl)-5-((2-iminooxazol-3(2H)-yl)methyl)-2′-methyl-[1,1′-biphenyl]-3-carboxamide]"
13,5.3 µM,"Cc1ccnc(C(NC(=O)c2cc(Cn3ccoc3=N)cc(-c3ncc(F)cc3C)c2)C2CC2)c1 (stereo not shown) [Example 239, N-(Cyclopropyl(4-methylpyridin-2-yl)methyl)-3-(5-fluoro-3-methylpyridin-2-yl)-5-((2-iminooxazol-3(2H)-yl)methyl)benzamide]"
14,< 0.1 µM,"Cc1cc([C@@H](NC(=O)c2cc(Cn3ccn(C)c3=N)cc(-c3ccc(F)cc3C)c2)C2CC2)ccc1F [Example 54, (S)—N-(Cyclopropyl(4-fluoro-3-methylphenyl)methyl)-4′-fluoro-5-((2-imino-3-methyl-2,3-dihydro-1H-imidazol-1-yl)methyl)-2′-methyl-[1,1′-biphenyl]-3-carboxamide]"
15,0.24 µM,"Cc1cc(F)ccc1-c1cc(Cn2ccn(C)c2=N)cc(C(=O)NCc2ccc(Cl)c(Cl)c2)n1 [Example 5, N-(3,4-dichlorobenzyl)-6-(4-fluoro-2-methylphenyl)-4-((2-imino-3-methyl-2,3-dihydro-1H-imidazol-1-yl)methyl)picolinamide]"
16,0.26 µM,"Cc1cc(CNC(=O)c2cc(Cn3ccn(C)c3=N)cc(-c3cccnc3C(F)(F)F)c2)ccc1Cl [Example 76, N-(4-Chloro-3-methylbenzyl)-3-((2-imin-3-methyl-2,3-dihydro-1H-imidazol-1-yl)methyl)-5-(2-(trifluoromethyl)pyridin-3-yl)benzamide]"
17,0.21 µM,"Cc1cc([C@@H](NC(=O)c2cc(Cn3ccoc3=N)cc(-c3ccc(F)cc3C)c2)C2CC2)ccc1F [Example 232, (S)—N-(Cyclopropyl(4-fluoro-3-methylphenyl)methyl)-4′-fluoro-5-((2-iminooxazol-3(2H)-yl)methyl)-2′-methyl-[1,1′-biphenyl]-3-carboxamide]"
18,0.91 µM,"COc1cc(CNC(=O)c2cc(Cn3ccsc3=N)cc(-c3ccc(F)cc3C)c2)cc(OC)c1 [Example 307, N-(3,5-Dimethoxybenzyl)-4′-fluoro-5-((2-iminothiazol-3(2H)-yl)methyl)-2′-methyl-[1,1′-biphenyl]-3-carboxamide]"
19,0.78 µM,"Cc1cc([C@@H](C)NC(=O)c2cc(Cn3ccn(C)c3=N)cc(-c3ccc(F)cc3C)c2)ccc1F [Example 29, (R)-4′-Fluoro-N-(1-(4-fluoro-3-methylphenyl)ethyl)-5-((2-imino-3-methyl-2,3-dihydro-imidazol-1-yl)methyl)-2′-methyl-[1,1′-biphenyl]-3-carboxamide]"
20,0.87 µM,"Cc1cc([C@H](C)NC(=O)c2cc(Cn3ccoc3=N)cc(-c3ccc(F)cc3C)c2)ccc1Cl [Example 234, (S)—N-(1-(4-Chloro-3-methylphenyl)ethyl)-4′-fluoro-5-((2-iminooxazol-3(2H)-yl)methyl)-2′-methyl-[1,1′-biphenyl]-3-carboxamide]"
21,2.16 µM,"Cc1cc([C@@H](NC(=O)c2cc(Cn3ccn(C)c3=N)cc(-c3ccnn3C(C)C)c2)C2CC2)ccc1F [Example 102, (S)—N-(Cyclopropyl(4-fluoro-3-methylphenyl)methyl)-3-((2-imino-3-methyl-2,3-dihydro-1H-imidazol-1-yl)methyl)-5-(1-isopropyl-1H-pyrazol-5-yl)benzamide]"
22,0.3 µM,"Cc1cc(F)ccc1-c1cc(Cn2ccn(C)c2=N)cc(C(=O)N[C@@H](C)c2ccc(F)c(C(F)(F)F)c2)c1 [Example 31, (S)-4′-Fluoro-N-(1-(4-fluoro-3-(trifluoromethyl)phenyl)ethyl)-5-((2-imino-3-methyl-2,3-dihydro-1H-imidazol-1-yl)methyl)-2′-methyl-[1,1′-biphenyl]-3-carboxamide]"
23,1.5 µM,"Cc1cc(F)ccc1-c1cc(Cn2ccn(C)c2=N)cc(C(=O)N[C@H](C)c2ccc(F)c(C(F)(F)F)c2)c1 [Example 32, (R)-4′-Fluoro-N-(1-(4-fluoro-3-(trifluoromethyl)phenyl)ethyl)-5-((2-imino-3-methyl-2,3-dihydro-1H-imidazol-1-yl)methyl)-2′-methyl-[1,1′-biphenyl]-3-carboxamide]"
24,< 0.1 µM,Cc1cc([C@@H](NC(=O)c2cc(Cn3ccn(C)c3=N)cc(-c3ccc(F)cc3C(F)(F)F)c2F)C2CC2)ccc1F [Example 109]
25,14 µM,"Cc1cc(-c2cc(Cn3ccn(C)c3=N)cc(C(=O)NCc3ccc(Cl)c(Cl)c3)c2)ccn1 [Example 22, N-(3,4-Dichlorobenzyl)-3-((2-imino-3-methyl-2,3-dihydro-1H-imidazol-1-yl)methyl)-5-(2-methylpyridin-4-yl)benzamide]"
26,0.64 µM,"Cc1cc([C@H](C)NC(=O)c2cc(Cn3ccoc3=N)cc(-c3ccc(F)cc3C)c2)ccc1F [Example 230, (S)-4′-Fluoro-N-(1-(4-fluoro-3-methylphenyl)ethyl)-5-((2-iminooxazol-3(2H)-yl)methyl)-2′-methyl-[1,1′-biphenyl]-3-carboxamide]"
27,0.18 µM,"COc1cc(OC)cc(C(NC(=O)c2cc(Cn3ccoc3=N)cc(-c3cccnc3C(F)(F)F)c2)C2CC2)c1 (stereo not shown) [Example 245, N-(Cyclopropyl(3,5-dimethoxyphenyl)methyl)-3-((2-iminooxazol-3(2H)-yl)methyl)-5-(2-(trifluoromethyl)pyridin-3-yl)benzamide]"

# Reference: patent publication US10844044B2 (Vanderbilt University, priority 2018, dated 2020)
